Data on eight molecules can be found in patent US10336732B2, “1-heterocyclyl isochromanyl compounds and analogs for treating CNS disorders” (Sunovion Pharmaceuticals Inc., priority 2015, dated 2019).

The test system of the assay is mice. In words: Neuropharmacological assay (SmartCube), behavioral signature of compound-treated mice. The class given is in vivo. The note with it: i.p. 15 min before behavioral test, most efficacious dose(s) of 3 doses. From the text:
Neurosci. […] As reported in Roberds, because psychiatric diseases generally result from disorders of cell-cell communication or circuitry, intact systems are useful in detecting improvement in disease-relevant endpoints. These endpoints are typically behavioral in nature, often requiring human observation and interpretation. To facilitate testing of multiple compounds for behavioral effects relevant to psychiatric disease, PsychoGenics, Inc. (Tarrytown, N.Y., “PGI”) developed SmartCube™, an automated system in which behaviors of compound-treated mice are captured by digital video and analyzed with computer algorithms. […] PGI Analytical Systems uses data from SmartCube™ to compare the behavioral signature of a test compound to a database of behavioral signatures obtained using a large set of diverse reference compounds. (The composition of the database as well as validation of the method is further described in Roberds). In this way, the neuropharmacological effects of a test compound can be predicted by similarity to major classes of compounds, such as antipsychotics, anxiolytics and antidepressants.
The SmartCube™ system produces an activity signature indicating the probability that the activity of the test compound at the administered dose matches a given class of neuropharmacological agents. (See, e.g., Roberds, FIGS. 2 and 3). The test compound is simultaneously compared against multiple classes of agents; thus, a separate probability is generated for each behavioral effect measured (e.g., anxiolytic activity, analgesic activity, etc.). In Table 4, these probabilities are reported for each behavioral effect measured as follows:
Provided compounds were dissolved in a mixture of Pharmasolve™ (N-methyl-2-pyrrolidone), polyethylene glycol and propylene glycol, and were injected i.p. 15 min. before the behavioral test. For each compound, injections were administered at 3 different doses. For each behavioral effect measured, results for the most efficacious dose(s) are presented.
For `N#Cc1ccc2c(c1)CCO[C@H]2[C@@H]1CCCN1` [Compound I-44, (R)-1-((S)-pyrrolidin-2-yl)isochroman-6-carbonitrile], the “AD: ADHD (probability that behavioral signature matches class)” value (from here on “AD: ADHD”) was “+ (LOQ ≤ + <5%)”, the “AG: analgesic (probability that behavioral signature matches class)” value (from here on “AG: analgesic”) was “++ (5% ≤ ++ <25%)”, the “AX: anxiolytic (probability that behavioral signature matches class)” value (shortened to “AX: anxiolytic”) is recorded as “+++ (25% ≤ +++ <50%)” and the “CE: cognitive enhancer (probability that behavioral signature matches class)” value (“CE: cognitive enhancer” for short) is “++ (5% ≤ ++ <25%)”. Besides, the “DP: anti-depressant (probability that behavioral signature matches class)” value (“DP: anti-depressant” below) is reported as “++ (5% ≤ ++ <25%)”, the “HA: hallucinogen (probability that behavioral signature matches class)” value (“HA: hallucinogen” below) is listed as “+ (LOQ ≤ + <5%)”, the “MS: mood stabilizer (probability that behavioral signature matches class)” value (“MS: mood stabilizer” for short) is “++ (5% ≤ ++ <25%)” and the “PS: anti-psychotic (probability that behavioral signature matches class)” value (“PS: anti-psychotic” for short) is “+++ (25% ≤ +++ <50%)”. The “SD: sedative hypnotic (probability that behavioral signature matches class)” value (“SD: sedative hypnotic” below) is “+ (LOQ ≤ + <5%)”, the “UN: uncharacterized CNS activity (probability that behavioral signature matches class)” value (from here on “UN: uncharacterized CNS activity”) is “+ (LOQ ≤ + <5%)” and the “XG: anxiogenic (probability that behavioral signature matches class)” value (from here on “XG: anxiogenic”) was “+ (LOQ ≤ + <5%)”.
Consider `Clc1ccc2c(c1)CCO[C@H]2[C@@H]1CCCN1` [Compound I-34, (S)-2-((R)-6-chloroisochroman-1-yl)pyrrolidine], for which the “AD: ADHD” value is given as “+ (LOQ ≤ + <5%)”, the “AG: analgesic” value is “++ (5% ≤ ++ <25%)”, the “AX: anxiolytic” value is listed as “++ (5% ≤ ++ <25%)” and the “CE: cognitive enhancer” value is “++ (5% ≤ ++ <25%)”. The “DP: anti-depressant” value is “++ (5% ≤ ++ <25%)”, the “HA: hallucinogen” value is recorded as “+ (LOQ ≤ + <5%)”, the “MS: mood stabilizer” value is recorded as “+ (LOQ ≤ + <5%)” and the “PS: anti-psychotic” value is listed as “++ (5% ≤ ++ <25%)”. Besides, the “SD: sedative hypnotic” value is reported as “++ (5% ≤ ++ <25%)”, the “UN: uncharacterized CNS activity” value is given as “+++ (25% ≤ +++ <50%)” and the “XG: anxiogenic” value is “+ (LOQ ≤ + <5%)”.
Take `c1cc2c(c3c1CCO[C@@H]3[C@@H]1CCCN1)OCO2` [Compound I-51, (S)-2-((S)-7,9-dihydro-6H-[1,3]dioxolo[4,5-h]isochromen-9-yl)pyrrolidine]: the “AD: ADHD” value was “+ (LOQ ≤ + <5%)”, the “AG: analgesic” value is on record as “++ (5% ≤ ++ <25%)”, the “AX: anxiolytic” value is “++ (5% ≤ ++ <25%)” and the “CE: cognitive enhancer” value is on record as “+ (LOQ ≤ + <5%)”. In addition, the “DP: anti-depressant” value is given as “+ (LOQ ≤ + <5%)”, the “HA: hallucinogen” value is “+ (LOQ ≤ + <5%)”, the “MS: mood stabilizer” value is given as “+ (LOQ ≤ + <5%)” and the “PS: anti-psychotic” value is on record as “+ (LOQ ≤ + <5%)”. For the same molecule, the “SD: sedative hypnotic” value is listed as “+ (LOQ ≤ + <5%)”, the “UN: uncharacterized CNS activity” value is recorded as “++ (5% ≤ ++ <25%)” and the “XG: anxiogenic” value was “+ (LOQ ≤ + <5%)”.
Regarding `Fc1cccc2c1CCO[C@H]2[C@@H]1CCN1` [Compound I-93, (S)-2-((R)-5-fluoroisochroman-1-yl)azetidine], the “AD: ADHD” value is reported as “++ (5% ≤ ++ <25%)”, the “AG: analgesic” value is listed as “+++ (25% ≤ +++ <50%)”, the “AX: anxiolytic” value is “++ (5% ≤ ++ <25%)” and the “CE: cognitive enhancer” value is listed as “++ (5% ≤ ++ <25%)”. For the same molecule, the “DP: anti-depressant” value is given as “+++ (25% ≤ +++ <50%)”, the “HA: hallucinogen” value is given as “+ (LOQ ≤ + <5%)”, the “MS: mood stabilizer” value is “+ (LOQ ≤ + <5%)” and the “PS: anti-psychotic” value is “++ (5% ≤ ++ <25%)”. In addition, the “SD: sedative hypnotic” value is given as “++ (5% ≤ ++ <25%)”, the “UN: uncharacterized CNS activity” value is “++ (5% ≤ ++ <25%)” and the “XG: anxiogenic” value is “+ (LOQ ≤ + <5%)”.
As to `c1ccc2c(c1)CCO[C@@H]2[C@H]1CCCN1` [Compound I-20, (R)-2-((S)-isochroman-1-yl)pyrrolidine], the “AD: ADHD” value is given as “+ (LOQ ≤ + <5%)”, the “AG: analgesic” value is “++ (5% ≤ ++ <25%)”, the “AX: anxiolytic” value is given as “++ (5% ≤ ++ <25%)” and the “CE: cognitive enhancer” value was “++ (5% ≤ ++ <25%)”. Besides, the “DP: anti-depressant” value is “++ (5% ≤ ++ <25%)”, the “HA: hallucinogen” value is given as “+ (LOQ ≤ + <5%)”, the “MS: mood stabilizer” value is reported as “++ (5% ≤ ++ <25%)” and the “PS: anti-psychotic” value is reported as “++++ (50% ≤ ++++)”. For the same molecule, the “SD: sedative hypnotic” value is given as “++ (5% ≤ ++ <25%)”, the “UN: uncharacterized CNS activity” value is reported as “+++ (25% ≤ +++ <50%)” and the “XG: anxiogenic” value was “+ (LOQ ≤ + <5%)”.
For the molecule `N#Cc1ccc2c(c1)[C@H]([C@H]1CCCN1)OCC2` [Compound I-41, (R)-1-((R)-pyrrolidin-2-yl)isochroman-7-carbonitrile], the “AD: ADHD” value is “+ (LOQ ≤ + <5%)”, the “AG: analgesic” value is given as “++ (5% ≤ ++ <25%)”, the “AX: anxiolytic” value was “++ (5% ≤ ++ <25%)” and the “CE: cognitive enhancer” value is “++ (5% ≤ ++ <25%)”. The “DP: anti-depressant” value was “+++ (25% ≤ +++ <50%)”, the “HA: hallucinogen” value is listed as “+ (LOQ ≤ + <5%)”, the “MS: mood stabilizer” value is recorded as “++ (5% ≤ ++ <25%)” and the “PS: anti-psychotic” value is “++ (5% ≤ ++ <25%)”. Moreover, the “SD: sedative hypnotic” value is “++ (5% ≤ ++ <25%)”, the “UN: uncharacterized CNS activity” value was “+ (LOQ ≤ + <5%)” and the “XG: anxiogenic” value is reported as “+ (LOQ ≤ + <5%)”.
As to `c1cc2c(c3c1CO[C@H]3[C@@H]1CCCN1)OCO2` [Compound I-141, (S)-2-((R)-6,8-dihydro-[1,3]dioxolo[4,5-e]isobenzofuran-8-yl)-pyrrolidine], the “AD: ADHD” value is “++ (5% ≤ ++ <25%)”, the “AG: analgesic” value is “++ (5% ≤ ++ <25%)”, the “AX: anxiolytic” value is on record as “++ (5% ≤ ++ <25%)” and the “CE: cognitive enhancer” value was “+++ (25% ≤ +++ <50%)”. The “DP: anti-depressant” value was “++ (5% ≤ ++ <25%)”, the “HA: hallucinogen” value is given as “++ (5% ≤ ++ <25%)”, the “MS: mood stabilizer” value is recorded as “+ (LOQ ≤ + <5%)” and the “PS: anti-psychotic” value was “++ (5% ≤ ++ <25%)”. For the same molecule, the “SD: sedative hypnotic” value is “+ (LOQ ≤ + <5%)”, the “UN: uncharacterized CNS activity” value was “++++ (50% ≤ ++++)” and the “XG: anxiogenic” value was “+ (LOQ ≤ + <5%)”.
Regarding `Fc1ccc2c(c1)CCCO[C@H]2[C@@H]1CCCN1` [Compound I-111, (S)-2-((R)-7-fluoro-1,3,4,5-tetrahydrobenzo[c]oxepin-1-yl)pyrrolidine], the “AD: ADHD” value is “+ (LOQ ≤ + <5%)”, the “AG: analgesic” value is recorded as “++ (5% ≤ ++ <25%)”, the “AX: anxiolytic” value is given as “++ (5% ≤ ++ <25%)” and the “CE: cognitive enhancer” value was “++ (5% ≤ ++ <25%)”. The “DP: anti-depressant” value is on record as “++ (5% ≤ ++ <25%)”, the “HA: hallucinogen” value is reported as “+ (LOQ ≤ + <5%)”, the “MS: mood stabilizer” value is given as “+ (LOQ ≤ + <5%)” and the “PS: anti-psychotic” value is reported as “++++ (50% ≤ ++++)”. Besides, the “SD: sedative hypnotic” value is given as “++ (5% ≤ ++ <25%)”, the “UN: uncharacterized CNS activity” value is recorded as “+++ (25% ≤ +++ <50%)” and the “XG: anxiogenic” value is “+ (LOQ ≤ + <5%)”.
